Measured values reported in ChEMBL document CHEMBL1909046, “DrugMatrix in vitro pharmacology data”.
Where a SMILES comes first, the peptide text is derived from it. Bridges are numbered along the chain shown (N, C = ends). [ ]: non-standard residue; d: D form. The star is where a group is joined. Ileψ(thiazoline)Cys = CC[C@H](C)[C@H](N)C1=N[C@H](C(=O)*)CS1; dOrn = NCCC[C@@H](N)C(=O)O

Key:
[1] = target: Adenosine receptor A2a (Homo sapiens, UniProt P29274); test: DRUGMATRIX: Adenosine A2A radioligand binding (ligand: […]); type: cell membranes, HEK293, Membrane; conditions: hek293; Not Active = under 50% inhibition at 10 µM
[2] = target: C-C chemokine receptor type 5 (Homo sapiens, UniProt P51681); type: cell membranes, Membrane; conditions: hek293; further: in other assays of this panel Not Active means under 50% inhibition at 10 µM
[3] = target: T1, Alpha-1A adrenergic receptor (Rattus norvegicus, UniProt P43140); test: DRUGMATRIX: Alpha-1A adrenergic receptor radioligand binding (ligand: prazosin); type: cell membranes, Wistar, Submaxillary gland, Membrane; conditions: Not Active = under 50% inhibition at 10 µM
T1 sequence (P43140 whole entry): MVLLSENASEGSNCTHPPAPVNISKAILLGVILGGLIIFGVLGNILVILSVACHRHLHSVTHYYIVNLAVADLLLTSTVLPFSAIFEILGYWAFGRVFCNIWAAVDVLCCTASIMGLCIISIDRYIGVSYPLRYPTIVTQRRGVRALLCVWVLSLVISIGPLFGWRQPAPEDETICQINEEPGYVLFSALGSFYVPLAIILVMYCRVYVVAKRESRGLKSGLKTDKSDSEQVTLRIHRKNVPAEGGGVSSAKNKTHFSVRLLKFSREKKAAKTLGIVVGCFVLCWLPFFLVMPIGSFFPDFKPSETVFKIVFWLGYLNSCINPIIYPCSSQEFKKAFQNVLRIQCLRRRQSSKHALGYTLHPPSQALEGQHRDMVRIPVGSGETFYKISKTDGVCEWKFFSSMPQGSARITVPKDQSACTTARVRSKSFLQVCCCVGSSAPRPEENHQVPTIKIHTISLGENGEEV

[4] = target: T2, 5-hydroxytryptamine receptor 1A (Rattus norvegicus, UniProt P19327); type: cell membranes, CHO-K1, Membrane; further: in other assays of this panel Not Active means under 50% inhibition at 10 µM
T2 sequence (P19327 whole entry): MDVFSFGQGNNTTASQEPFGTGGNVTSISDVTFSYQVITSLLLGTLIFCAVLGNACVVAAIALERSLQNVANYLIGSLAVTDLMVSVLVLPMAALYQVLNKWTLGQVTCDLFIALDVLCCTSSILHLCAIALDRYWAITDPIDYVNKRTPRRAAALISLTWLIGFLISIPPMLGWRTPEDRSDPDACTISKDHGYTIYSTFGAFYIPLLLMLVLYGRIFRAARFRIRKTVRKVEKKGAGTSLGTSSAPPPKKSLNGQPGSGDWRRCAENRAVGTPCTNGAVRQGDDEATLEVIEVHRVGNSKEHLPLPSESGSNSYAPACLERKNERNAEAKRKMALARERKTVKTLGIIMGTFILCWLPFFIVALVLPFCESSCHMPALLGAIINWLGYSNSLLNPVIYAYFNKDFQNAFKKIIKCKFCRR

[5] = target: T3, Receptor-type tyrosine-protein phosphatase C (Homo sapiens, UniProt P08575); design: species or system Escherichia coli;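 further: inhibition of CD45 enzyme activity measured using DiFMUP as substrate; in other assays of this panel Not Active means under 50% inhibition at 10 µM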
T3 sequence (P08575 whole entry): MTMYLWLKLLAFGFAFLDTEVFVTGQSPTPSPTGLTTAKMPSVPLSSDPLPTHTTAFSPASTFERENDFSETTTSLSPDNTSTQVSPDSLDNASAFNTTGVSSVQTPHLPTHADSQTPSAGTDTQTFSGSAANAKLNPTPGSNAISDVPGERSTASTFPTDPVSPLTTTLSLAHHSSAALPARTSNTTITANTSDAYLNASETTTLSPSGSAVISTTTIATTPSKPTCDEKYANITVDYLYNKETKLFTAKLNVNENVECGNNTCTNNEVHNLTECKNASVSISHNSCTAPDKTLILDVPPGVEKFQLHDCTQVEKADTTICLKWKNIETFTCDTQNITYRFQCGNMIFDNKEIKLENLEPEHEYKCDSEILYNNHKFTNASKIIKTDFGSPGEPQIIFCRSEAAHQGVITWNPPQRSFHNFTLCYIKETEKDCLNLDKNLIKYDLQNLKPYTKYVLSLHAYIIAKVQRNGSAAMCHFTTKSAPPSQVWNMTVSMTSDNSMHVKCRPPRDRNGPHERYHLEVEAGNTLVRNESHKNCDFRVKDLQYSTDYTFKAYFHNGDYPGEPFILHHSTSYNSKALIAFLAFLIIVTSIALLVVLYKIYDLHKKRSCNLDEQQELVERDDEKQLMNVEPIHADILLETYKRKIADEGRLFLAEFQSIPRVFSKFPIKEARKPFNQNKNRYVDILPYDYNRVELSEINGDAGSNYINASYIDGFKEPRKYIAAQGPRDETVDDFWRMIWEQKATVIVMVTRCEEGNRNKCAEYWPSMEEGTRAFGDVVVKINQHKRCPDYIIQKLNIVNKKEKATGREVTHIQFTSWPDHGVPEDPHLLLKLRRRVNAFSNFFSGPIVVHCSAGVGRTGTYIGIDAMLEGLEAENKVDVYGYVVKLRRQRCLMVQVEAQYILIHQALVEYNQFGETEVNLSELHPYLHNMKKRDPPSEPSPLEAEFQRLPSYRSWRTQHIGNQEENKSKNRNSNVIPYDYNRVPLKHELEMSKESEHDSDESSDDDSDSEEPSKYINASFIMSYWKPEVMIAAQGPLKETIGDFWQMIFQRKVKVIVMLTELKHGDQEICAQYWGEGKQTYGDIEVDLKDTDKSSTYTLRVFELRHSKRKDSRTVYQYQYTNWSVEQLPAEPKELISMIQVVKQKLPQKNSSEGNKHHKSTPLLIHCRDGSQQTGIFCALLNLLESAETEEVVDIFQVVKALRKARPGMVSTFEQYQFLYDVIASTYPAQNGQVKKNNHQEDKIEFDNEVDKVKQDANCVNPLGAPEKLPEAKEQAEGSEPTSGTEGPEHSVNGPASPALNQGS

Chain of Adenosine receptor A2a (P29274 whole entry): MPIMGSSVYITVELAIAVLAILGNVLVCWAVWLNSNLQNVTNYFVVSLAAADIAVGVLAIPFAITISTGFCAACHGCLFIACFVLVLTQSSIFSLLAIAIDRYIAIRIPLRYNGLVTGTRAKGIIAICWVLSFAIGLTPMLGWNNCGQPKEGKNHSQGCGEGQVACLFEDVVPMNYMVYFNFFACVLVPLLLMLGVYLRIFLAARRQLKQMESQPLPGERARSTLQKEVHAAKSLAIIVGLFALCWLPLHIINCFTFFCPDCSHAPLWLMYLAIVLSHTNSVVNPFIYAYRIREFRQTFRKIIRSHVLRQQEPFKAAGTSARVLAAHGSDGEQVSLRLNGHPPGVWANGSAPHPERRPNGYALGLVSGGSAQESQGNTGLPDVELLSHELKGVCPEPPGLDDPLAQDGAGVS
Chain of C-C chemokine receptor type 5 (P51681 whole entry): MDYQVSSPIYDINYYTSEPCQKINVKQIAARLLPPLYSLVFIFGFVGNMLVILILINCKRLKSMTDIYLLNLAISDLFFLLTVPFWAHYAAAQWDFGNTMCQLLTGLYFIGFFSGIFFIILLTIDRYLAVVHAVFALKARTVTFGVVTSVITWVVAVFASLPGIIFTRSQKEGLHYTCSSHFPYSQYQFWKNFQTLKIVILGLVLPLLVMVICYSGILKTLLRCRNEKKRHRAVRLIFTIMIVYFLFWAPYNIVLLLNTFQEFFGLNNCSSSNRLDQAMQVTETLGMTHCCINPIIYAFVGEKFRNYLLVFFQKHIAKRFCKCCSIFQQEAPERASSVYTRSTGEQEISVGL

| Molecule | IC50 [1] | IC50 [2] | IC50 [3] | IC50 ([4]; cho-k1) | IC50 [5] | Ki [1] | Ki [2] | Ki [3] | Ki ([4]; cho-k1) | Ki [5] | IC50 ([3]; read-out: IC50) | Ki ([3]; read-out: Ki) | IC50 ([4]; read-out: IC50) | Ki ([4]; read-out: Ki) |
| --- | --- | --- | --- | --- | --- | --- | --- | --- | --- | --- | --- | --- | --- | --- |
| N=C(N)NCCCCNC(=N)N.O=S(=O)(O)O [ARCAINE SULFATE] | Not Active | Not Active | Not Active | Not Active | Not Active | – | – | – | – | – | – | – | – | – |
| O=c1cc(-c2ccccc2)oc2c1ccc1ccccc12 [ALPHA-NAPHTHOFLAVONE] | Not Active | Not Active | Not Active | Not Active | Not Active | – | – | – | – | – | – | – | – | – |
| CC(=O)OCC(=O)[C@@]1(OC(C)=O)[C@@H](C)C[C@H]2[C@@H]3C[C@H](F)C4=CC(=O)C=C[C@]4(C)[C@@]3(F)[C@@H](O)C[C@@]21C [DIFLORASONE DIACETATE] | Not Active | Not Active | Not Active | Not Active | Not Active | – | – | – | – | – | – | – | – | – |
| O=C1OCCN1/N=C/c1ccc([N+](=O)[O-])o1 [FURAZOLIDONE] | Not Active | Not Active | Not Active | Not Active | Not Active | – | – | – | – | – | – | – | – | – |
| CNC(=O)Oc1ccc2c(c1)[C@]1(C)CCN(C)[C@@H]1N2C [PHYSOSTIGMINE] | Not Active | Not Active | Not Active | Not Active | Not Active | – | – | – | – | – | – | – | – | – |
| CCCC[C@@H](CC)COC(=O)c1ccccc1C(=O)OC[C@@H](CC)CCCC [BIS(2-ETHYLHEXYL)PHTHALATE] | Not Active | Not Active | Not Active | Not Active | Not Active | – | – | – | – | – | – | – | – | – |
| CC[N+](CC)(CC)CCOc1cccc(OCC[N+](CC)(CC)CC)c1OCC[N+](CC)(CC)CC.[I-].[I-].[I-] [GALLAMINE TRIETHIODIDE] | Not Active | Not Active | Not Active | Not Active | Not Active | – | – | – | – | – | – | – | – | – |
| CN(C)[C@@H]1C(O)=C(C(N)=O)C(=O)[C@@]2(O)C(O)=C3C(=O)c4c(O)cccc4[C@@](C)(O)[C@H]3[C@H](O)[C@@H]12 [OXYTETRACYCLINE] | Not Active | Not Active | Not Active | Not Active | Not Active | – | – | – | – | – | – | – | – | – |
| NS(=O)(=O)c1cc2c(cc1Cl)NCNS2(=O)=O [HYDROCHLOROTHIAZIDE] | Not Active | Not Active | Not Active | Not Active | Not Active | – | – | – | – | – | – | – | – | – |
| CC[C@H](C)[C@H](N)C1=N[C@H](C(=O)N[C@@H](CC(C)C)C(=O)N[C@H](CCC(=O)O)C(=O)N[C@H](C(=O)N[C@H]2CCCCNC(=O)[C@H](CC(N)=O)NC(=O)[C@@H](CC(=O)O)NC(=O)[C@H](Cc3cnc[nH]3)NC(=O)[C@@H](Cc3ccccc3)NC(=O)[C@H]([C@@H](C)CC)NC(=O)[C@@H](CCCN)NC2=O)[C@@H](C)CC)CS1 [BACITRACIN] ({Ileψ(thiazoline)Cys}-L[dE]IK[dOrn]I[dF]H[dD]N; lactam 4-C) | Not Active | Not Active | Not Active | Not Active | Not Active | – | – | – | – | – | – | – | – | – |
| Fc1ccc([C@@H]2CCNC[C@H]2COc2ccc3c(c2)OCO3)cc1 [PAROXETINE] | Not Active | Not Active | Not Active | Not Active | Not Active | – | – | – | – | – | – | – | – | – |
| GOLD SODIUM THIOMALATE | Not Active | Not Active | Not Active | Not Active | Not Active | Not Active | Not Active | Not Active | Not Active | Not Active | – | – | – | – |
| CISPLATIN | Not Active | Not Active | Not Active | Not Active | Not Active | Not Active | Not Active | Not Active | Not Active | Not Active | – | – | – | – |
| CNCCC=C1c2ccccc2CCc2ccccc21 [NORTRIPTYLINE] | Not Active | Not Active | – | – | Not Active | – | – | – | – | – | 305 nM | 123 nM | 1870 nM | 1070 nM |
| COC(=O)[C@H](c1ccccc1Cl)N1CCc2sccc2C1 [CLOPIDOGREL] | Not Active | Not Active | Not Active | Not Active | Not Active | – | – | – | – | – | – | – | – | – |
| CN1C[C@H](C(=O)N[C@]2(C)O[C@@]3(O)[C@@H]4CCCN4C(=O)[C@H](Cc4ccccc4)N3C2=O)C=C2c3cccc4[nH]cc(c34)C[C@H]21 [ERGOTAMINE] | Not Active | Not Active | – | – | Not Active | – | – | – | – | – | 8.06 nM | 3.26 nM | 0.774 nM | 0.443 nM |
| c1ccc2c(c1)cc1ccc3cccc4ccc2c1c34 | Not Active | Not Active | Not Active | Not Active | Not Active | – | – | – | – | – | – | – | – | – |
| CCOC(=O)c1ccc(N)cc1 [BENZOCAINE] | Not Active | Not Active | Not Active | Not Active | Not Active | – | – | – | – | – | – | – | – | – |
| Oc1cccc2cccnc12 [OXYQUINOLINE] | Not Active | Not Active | Not Active | Not Active | Not Active | – | – | – | – | – | – | – | – | – |
| COc1ccc2cc(CC(=O)O)ccc2c1 | Not Active | Not Active | Not Active | Not Active | Not Active | – | – | – | – | – | – | – | – | – |
| O=C1CN=C(c2ccccc2)c2cc([N+](=O)[O-])ccc2N1 [NITRAZEPAM] | Not Active | Not Active | Not Active | Not Active | Not Active | – | – | – | – | – | – | – | – | – |
| Cc1ccccc1N1CCN(CCc2nnc3n2CCCC3)CC1 [DAPIPRAZOLE] | Not Active | Not Active | – | – | Not Active | – | – | – | – | – | – | – | 2060 nM | 1180 nM |
